Where a name gives a salt, the structure may show the parent alone.

For one assay, the system named is MV-4-11 cells. Description: AML cell viability assay (RealTime-Glo). The class given is cell-based. Conditions: Homo sapiens, MV4-11; IC50 class; MV-4-11 cells, RealTime-Glo after 44 hrs of treatment (TABLE 3); read-out: Cell viability classification.
Another assay concerns the target CK1α (Homo sapiens, UniProt P48729+Q96SW2). Nature of the assay: CK1α degradation, flow cytometry in MV4-11 cells. Type of assay: cell-based. Details: CK1α levels were determined in MV-4-11 cells using Jess (Protein Simple); host or cells: MV-4-11. Conditions: % reduction of CK1α compared to DMSO, MV4-11 cells at 316 nM for 16 hours, read-out: CK1α degradation classification. The method, then:
MV-4-11 cells were obtained from ATCC and grown in IMDM supplemented with 10% FBS. The cells were maintained at 37° C. under 5% CO2.
Compounds of the present disclosure were added to cells (final DMSO concentration of 0.5%) and incubated for 16 hours. CK1α level was determined in MV4-11 cells using flow cytometry (Luminex, Guava EasyCyte Plus). Briefly, cells were prepared with sequential 10% formalin and 70% methanol fixation. […] GuavaSoft Incyte software was used to analyse the flow cytometry data. Protein levels relative to DMSO are calculated for CK1α.
The efficacy of CK1α degradation of other part of compounds of the present disclosure was determined by treating MV4-11 cells at […] (Final DMSO concentration of 0.5%) for 16 hours. Protein levels relative to DMSO are calculated for CK1α.
Protein levels relative to DMSO are calculated for CK1α.

Sequence of CK1α (P48729 whole entry): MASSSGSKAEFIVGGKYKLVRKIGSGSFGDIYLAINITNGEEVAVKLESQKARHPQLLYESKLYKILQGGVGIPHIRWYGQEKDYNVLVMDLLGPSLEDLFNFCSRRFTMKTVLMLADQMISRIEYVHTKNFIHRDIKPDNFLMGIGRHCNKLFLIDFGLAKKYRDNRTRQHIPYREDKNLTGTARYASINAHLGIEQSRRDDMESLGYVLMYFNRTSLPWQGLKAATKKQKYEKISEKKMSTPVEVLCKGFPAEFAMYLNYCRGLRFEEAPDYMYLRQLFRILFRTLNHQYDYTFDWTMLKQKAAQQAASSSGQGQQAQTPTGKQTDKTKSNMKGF
Sequence of CK1α (Q96SW2 whole entry): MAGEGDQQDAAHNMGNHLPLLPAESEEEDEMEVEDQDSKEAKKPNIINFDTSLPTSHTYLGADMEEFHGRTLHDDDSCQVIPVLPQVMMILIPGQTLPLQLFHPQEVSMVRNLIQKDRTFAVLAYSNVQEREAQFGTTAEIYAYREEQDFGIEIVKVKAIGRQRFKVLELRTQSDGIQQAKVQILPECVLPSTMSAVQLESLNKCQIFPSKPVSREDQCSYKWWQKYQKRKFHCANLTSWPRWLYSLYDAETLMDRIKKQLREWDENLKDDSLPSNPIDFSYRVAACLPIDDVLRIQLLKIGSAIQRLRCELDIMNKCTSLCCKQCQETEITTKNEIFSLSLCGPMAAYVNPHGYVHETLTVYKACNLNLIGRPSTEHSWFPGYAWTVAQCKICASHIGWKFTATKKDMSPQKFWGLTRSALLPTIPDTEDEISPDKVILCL
Sequence of CK1α (Q16531 whole entry partner): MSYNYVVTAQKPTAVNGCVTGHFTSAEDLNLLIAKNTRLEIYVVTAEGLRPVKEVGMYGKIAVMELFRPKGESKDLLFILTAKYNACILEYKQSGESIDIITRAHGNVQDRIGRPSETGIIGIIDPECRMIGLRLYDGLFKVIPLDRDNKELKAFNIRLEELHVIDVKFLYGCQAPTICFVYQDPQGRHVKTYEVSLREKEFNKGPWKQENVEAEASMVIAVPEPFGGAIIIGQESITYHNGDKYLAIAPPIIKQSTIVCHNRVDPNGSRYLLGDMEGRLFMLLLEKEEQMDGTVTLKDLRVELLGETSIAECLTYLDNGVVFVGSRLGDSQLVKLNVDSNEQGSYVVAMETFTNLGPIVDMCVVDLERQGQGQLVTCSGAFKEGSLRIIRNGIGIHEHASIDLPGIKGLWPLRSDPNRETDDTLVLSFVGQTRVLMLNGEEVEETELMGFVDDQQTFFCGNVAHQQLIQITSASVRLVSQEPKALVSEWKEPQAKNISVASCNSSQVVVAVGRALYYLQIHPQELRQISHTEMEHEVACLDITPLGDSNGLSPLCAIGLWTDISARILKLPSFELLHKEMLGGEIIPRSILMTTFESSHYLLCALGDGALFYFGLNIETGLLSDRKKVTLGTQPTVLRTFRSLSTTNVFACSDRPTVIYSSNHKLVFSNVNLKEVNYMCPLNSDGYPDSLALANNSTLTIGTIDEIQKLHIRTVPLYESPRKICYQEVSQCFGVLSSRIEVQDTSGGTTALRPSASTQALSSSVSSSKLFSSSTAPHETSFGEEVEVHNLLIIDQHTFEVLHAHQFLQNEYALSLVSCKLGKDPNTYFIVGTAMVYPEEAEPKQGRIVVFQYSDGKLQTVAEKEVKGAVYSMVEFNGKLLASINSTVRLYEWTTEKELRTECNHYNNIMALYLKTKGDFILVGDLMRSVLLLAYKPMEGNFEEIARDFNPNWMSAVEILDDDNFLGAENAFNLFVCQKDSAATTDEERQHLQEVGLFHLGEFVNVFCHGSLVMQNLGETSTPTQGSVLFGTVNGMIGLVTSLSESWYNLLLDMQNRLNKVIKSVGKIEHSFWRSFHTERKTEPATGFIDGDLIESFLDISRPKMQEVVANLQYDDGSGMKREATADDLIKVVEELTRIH

For `CCCCCN(c1cccc2c1CN(C1CCC(=O)NC1=O)C2=O)[C@H]1CC[C@H](NCC2CC2)CC1` (stereo partly drawn) [Compound 313, 3-(4-(((1R,4R)-4-((cyclopropylmethyl)amino)cyclohexyl)(pentyl)amino)-1-oxoisoindolin-2-yl)piperidine-2,6-dione hydrochloride], the IC50 in the assay on MV-4-11 cells is below 100 nM. Further, on CK1α, the Dmax at 0.316 µM was above 75%.
For `CCCCCN(c1cccc2c1CN(C1CCC(=O)NC1=O)C2=O)[C@@H]1CC[C@@H](CN)C1` (stereo partly drawn) [Compound 325, 3-(4-(((1R,3R)-3-(aminomethyl)cyclopentyl)(pentyl)amino)-1-oxoisoindolin-2-yl)piperidine-2,6-dione HCl salt], the IC50 in the assay with MV-4-11 cells is below 100 nM. Besides, the Dmax at 0.316 µM on CK1α is above 75%.
Regarding `NC[C@@H]1CC[C@@H](N(CCC2CC2)c2cccc3c2CN(C2CCC(=O)NC2=O)C3=O)C1` (stereo partly drawn) [Compound 325A, 3-(4-(((1R,3R)-3-(aminomethyl)cyclopentyl)(2-cyclopropylethyl)amino)-1-oxoisoindolin-2-yl)piperidine-2,6-dione, HCl], the IC50 in the assay with MV-4-11 cells is below 100 nM. Also, the Dmax at 0.316 µM at CK1α is above 75%.
The like results for `CCCCCN(c1cccc2c1CN(C1CCC(=O)NC1=O)C2=O)[C@@H]1CC[C@H](CN)C1` (stereo partly drawn) [Compound 326, 3-(4-(((1R,3S)-3-(aminomethyl)cyclopentyl)(pentyl)amino)-1-oxoisoindolin-2-yl)piperidine-2,6-dione, Formic Acid salt] were, in that order, below 100 nM and above 75%.
The like results for `NC[C@H]1CC[C@@H](N(CCC2CC2)c2cccc3c2CN(C2CCC(=O)NC2=O)C3=O)C1` (stereo partly drawn) [Compound 326A, 3-(4-(((1R,3S)-3-(aminomethyl)cyclopentyl)(2-cyclopropylethyl)amino)-1-oxoisoindolin-2-yl)piperidine-2,6-dione, HCl] were, in that order, below 100 nM and above 75%.
The like results for `CCCCCN(c1cccc2c1CN(C1CCC(=O)NC1=O)C2=O)[C@H]1CCC[C@H](CN)C1` (stereo partly drawn) [Compound 329, 3-(4-(((1S,3S)-3-(aminomethyl)cyclohexyl)(pentyl)amino)-1-oxoisoindolin-2-yl)piperidine-2,6-dione, HCl] were, in that order, 100 to 1000 nM and 50 to 75%.
Regarding `CCCCCN(c1cccc2c1CN(C1CCC(=O)NC1=O)C2=O)[C@H]1CCC[C@@H](CN)C1` (stereo partly drawn) [Compound 330, 3-(4-(((1S,3R)-3-(aminomethyl)cyclohexyl)(pentyl)amino)-1-oxoisoindolin-2-yl)piperidine-2,6-dione, HCl], the IC50 in the assay with MV-4-11 cells was below 100 nM. Further, the Dmax at 0.316 µM on CK1α was above 75%.
The matching figures for `O=C1CCC(N2Cc3c(cccc3N(CCCC(F)(F)F)[C@H]3CC[C@H](NC4CC(F)(F)C4)CC3)C2=O)C(=O)N1` (some centres unmarked) [Compound 512, 3-(4-(((1r,4r)-4-((3,3-difluorocyclobutyl)amino)cyclohexyl)(4,4,4-trifluorobutyl)amino)-1-oxoisoindolin-2-yl)piperidine-2,6-dione]: 100 to 1000 nM and 50 to 75%.
The like results for `O=C1CCC(N2Cc3c(cccc3N(CCCC(F)(F)F)[C@H]3CC[C@H](NCCC(F)(F)F)CC3)C2=O)C(=O)N1` (some centres unmarked) [Compound 513, 3-(1-oxo-4-((4,4,4-trifluorobutyl)((1r,4r)-4-((3,3,3-trifluoropropyl)amino)cyclohexyl)amino)isoindolin-2-yl)piperidine-2,6-dione] were, in that order, 100 to 1000 nM and above 75%.
Turning to `O=C1CCC(N2Cc3c(cccc3N(CCCC(F)(F)F)[C@H]3CC[C@H](NC4COC4)CC3)C2=O)C(=O)N1` (some centres unmarked) [Compound 514, 3-(1-oxo-4-{[(1r,4r)-4-(oxetan-3-ylamino)cyclohexyl](4,4,4-trifluorobutyl)amino}-3H-isoindol-2-yl)piperidine-2,6-dione], the IC50 in the assay with MV-4-11 cells is 100 to 1000 nM. Also, the Dmax at 0.316 µM on CK1α lay within 50 to 75%.
